The assay deals with T1, human LCE (Homo sapiens, UniProt Q9H5J4).
T1 sequence (Q9H5J4 1-265): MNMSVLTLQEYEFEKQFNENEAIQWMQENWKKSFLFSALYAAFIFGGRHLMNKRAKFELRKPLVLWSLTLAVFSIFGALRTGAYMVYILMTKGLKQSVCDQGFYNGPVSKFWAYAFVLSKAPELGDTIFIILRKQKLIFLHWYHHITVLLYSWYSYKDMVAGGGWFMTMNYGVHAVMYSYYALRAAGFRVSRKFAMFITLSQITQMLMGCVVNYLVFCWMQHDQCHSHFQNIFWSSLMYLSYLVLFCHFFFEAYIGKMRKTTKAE
In words: LCE enzyme activity-inhibitory test. Format: biochemical. Conditions: [14C]-malonyl CoA / palmitoyl CoA substrate, 37° C., 90 minutes. The protocol:
Pharmacological Test Example 1 (LCE Enzyme Activity-inhibitory Test)
A test compound was dissolved in dimethyl sulfoxide (DMSO to be 10 mM), and then diluted with DMSO to prepare a 1000-fold concentrated solution of the test concentration. An improved Moon et al's method (J. Biol. Chem., Vol. 276, pp. 45358-45366, 2001) was employed for the LCE enzyme activity-inhibitor test. Concretely, the diluted compound was applied to a 96-well assay plate (Corning, 96-well assay block) in an amount of 1.0 μL/well; 50 μL of a phosphate buffer solution (100 mM potassium phosphate buffer, pH 6.5), and 25 μL of a substrate solution (100 mM potassium phosphate buffer (pH 6.5), 4.0 μM rotenone, 80 μM fatty acid-free bovine serum albumin, 160 μM palmitoyl CoA, 80 μM malonyl CoA, 3.5 μM [^14C]-malonyl CoA (1.92 GBq/mmol, by Amersham)) were added to each well; 25 μL of an enzyme solution (100 mM potassium phosphate buffer (pH 6.5), 100 μg/mL human LCE) was added thereto; the top of the plate was airtightly sealed up; and this was incubated with gently shaking and stirring at 37° C. for 90 minutes. Next, 100 μL of 5 M hydrochloric acid was added to each well, and the assay plate was stirred at room temperature for 5 minutes to stop the enzyme reaction with hydrolyzing the acyl CoA. Next, the enzyme reaction solution in each well was adsorbed by each well of a 96-well GF/C filter plate (Perkin Elmer Unifilter 96 GF/C); the individual wells were washed with water to remove the non-adsorbed malonyl CoA; and the GF/C filter plate was dried at 50° C. for 60 minutes. Next, 30 μL of a scintillator (Perkin Elmer Microscinti 0) was added to each well; then the top of the plate was sealed up; and the fixed [^14C] radioactivity was measured with a microplate scintillation counter (Perkin Elmer TopCount) to be the enzyme activity. The human LCE enzyme-inhibitory activity of the test compound was calculated, based on the radioactivity of the DMSO-added well with no test compound therein as a control.
As to `CC(C)c1ccc(NC(=O)c2cccc(S(=O)(=O)N3CCCC(O)C3)c2)cc1` (centres unmarked) [Example 32, 3-[(3-Hydroxypiperidin-1-yl)sulfonyl]-N-(4-isopropylphenyl)benzamide], the midpoint of inhibition, the IC50, lay at 100 nM. The result for `CC(C)c1ccc(NC(=O)c2cccc(S(=O)(=O)N3CC[C@@H](F)C3)c2)cc1` [Example 33] reads 2600 nM; that for `CC(C)c1ccc(NC(=O)c2cccc(S(=O)(=O)N3CCCC(C(N)=O)C3)c2)cc1` (centres unmarked) [Example 34, 1-[(3-{[(4-Isopropylphenyl)amino]carbonyl]phenyl)sulfonyl}piperidine-3-carboxamide], 53 nM; that for `CC(C)c1ccc(NC(=O)c2cccc(S(=O)(=O)N3CCC[C@@H](O)C3)c2)cc1` [Example 36, 3-{[(3R)-3-hydroxypiperidin-1-yl]sulfonyl}-N-(4-isopropylphenyl)benzamide], 81 nM. The result for `CC(C)c1ccc(NC(=O)c2cccc(S(=O)(=O)N3CCCC(CO)C3)c2)cc1` (centres unmarked) [Example 37, 3-{[3-(hydroxymethyl)piperidin-1-yl]sulfonyl}-N-(4-isopropylphenyl)benzamide] reads 66 nM. The result for `CC(C)c1ccc(NC(=O)c2cccc(S(=O)(=O)NC3CCCCC3)c2)cc1` [Example 38, 3-[(Cyclohexylamino)sulfonyl]-N-(4-isopropylphenyl)benzamide] reads 1000 nM; that for `CC(C)c1ccc(NC(=O)c2cccc(S(=O)(=O)Nc3ccccc3)c2)cc1` [Example 39, 3-(Anilinosulfonyl)-N-(4-isopropylphenyl)benzamide], 5200 nM. As to `COC[C@H]1CCCN1S(=O)(=O)c1cccc(C(=O)Nc2ccc(C(C)C)cc2)c1` [Example 40, N-(4-Isopropylphenyl)-3-{[(2R)-2-(methoxymethyl)pyrrolidin-1-yl]sulfonyl}benzamide], inhibition was half-maximal at 8000 nM (IC50). With `COc1ccccc1NC(=O)c1cccc(S(=O)(=O)N2CCC[C@@H](O)C2)c1` [Example 41, 3-{[(3R)-3-hydroxypiperidin-1-yl]sulfonyl}-N-(2-methoxyphenyl)benzamide], the IC50 – broadly, the concentration needed to halve the response being measured – turned out to be 5100 nM. In turn, `COc1ccccc1NC(=O)c1cccc(S(=O)(=O)N2CCCC(CO)C2)c1` (centres unmarked) [Example 42, 3-{[3-(hydroxymethyl)piperidin-1-yl]sulfonyl}-N-(2-methoxyphenyl)benzamide] had an IC50 of 500 nM. To `COc1ccccc1NC(=O)c1cccc(S(=O)(=O)N2CCCC(C(N)=O)C2)c1` (centres unmarked) [Example 43, 1-[(3-{[(2-methoxyphenyl)amino]carbonyl]phenyl)sulfonyl}piperidine-3-carboxamide] belongs 530 nM; to `COc1ccc(NC(=O)c2cccc(S(=O)(=O)NCCCCC(=O)O)c2)cc1` [Example 44, 5-{[(3-{[(4-methoxyphenyl)amino]carbonyl}phenyl)sulfonyl]amino}pentanoic acid], 15000 nM; to `COc1ccc(NC(=O)c2cccc(S(=O)(=O)NC(C)(C)C)c2)cc1` [Example 45, 3-[(Tert-butylamino)sulfonyl]-N-(4-methoxyphenyl)benzamide], 10000 nM. On to `COc1ccc(NC(=O)c2cccc(S(=O)(=O)N3CCCCC3)c2)cc1` [Example 46, N-(4-methoxyphenyl)-3-(piperidin-1-ylsulfonyl)benzamide], for which the IC50 was found to be 790 nM. To `COc1cccnc1NC(=O)c1cccc(S(=O)(=O)N2CCOCC2)c1` [Example 47, N-(3-methoxypyridin-2-yl)-3-(morpholin-4-ylsulfonyl)benzamide] belongs 1400 nM. `COc1cccnc1NC(=O)c1cccc(S(=O)(=O)N2CCC[C@@H]2C)c1` [Example 48, N-(3-methoxypyridin-2-yl)-3-{[(2S)-2-methylpyrrolidin-1-yl]sulfonyl}benzamide] showed an IC50 of 210 nM. The compound `COc1cccnc1NC(=O)c1cccc(S(=O)(=O)N2CC3CCC2C3)c1` (centres unmarked) [Example 49, 3-(2-Azabicyclo [2.2.1]hept-2-ylsulfonyl)-N-(3-methoxypyridin-2-yl)benzamide] displayed an IC50 of 67 nM.

The values are drawn from patent US8420823B2, “Long-chain fatty acyl elongase inhibitor comprising arylsulfonyl derivative as active ingredient” (MSD K.K., priority 2008, dated 2013).
